Data: the supplement of paper PMC10307832

Columns and labels:
Assay in all cases: relative viability (nuclei count vs DMSO), 5 days (fraction); higher = more cells survive
[1] = tested on: HCC-15
Summary of the method: (§1)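 A single step with final 0.05% Triton X-100, 1% formaldehyde and 1 ug/ml Hoechst fixed the cells and stained nuclei 5 days after treatment. Lung cancer cell lines in 1536-well plates had been treated by pin tool the day after seeding with one drug alone or a fixed anchor-drug dose plus five library-drug doses (not always all listed) in √10 steps, and nuclei were counted on 4× images. Relative viability is the ratio of nuclei in treated wells to nuclei in vehicle wells, taken as the median of duplicate plates.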

[2] = tested on: NCI-H727
Summary of the method: as §1

[3] = tested on: HCC-78
Summary of the method: as §1

[4] = tested on: HARA
Summary of the method: as §1

[5] = tested on: HCC-366
Summary of the method: as §1

[6] = tested on: 201T
Summary of the method: as §1

[7] = tested on: PC-14
Summary of the method: as §1

[8] = tested on: EBC-1
Summary of the method: as §1

[9] = tested on: NCI-H1437
Summary of the method: as §1

[10] = tested on: LCLC-97TM1
Summary of the method: as §1

[11] = tested on: COR-L23
Summary of the method: as §1

[12] = tested on: NCI-H2405
Summary of the method: as §1

[13] = tested on: NCI-H460
Summary of the method: as §1

[14] = tested on: LK-2
Summary of the method: as §1

[15] = tested on: COR-L 105
Summary of the method: as §1

[16] = tested on: A-427
Summary of the method: as §1

[17] = tested on: NCI-H2023
Summary of the method: as §1

[18] = tested on: NCI-H3122
Summary of the method: as §1

[19] = tested on: NCI-H1915
Summary of the method: as §1

[20] = tested on: NCI-H1563
Summary of the method: as §1

[21] = tested on: NCI-H1666
Summary of the method: as §1

[22] = tested on: NCI-H1944
Summary of the method: as §1

[23] = tested on: NCI-H1975
Summary of the method: as §1

SMILES: Nc1cccc2c1CN(C1CCC(=O)NC1=O)C2=O (centres undefined) [Lenalidomide] + COc1cc2c(Oc3ccc(NC(=O)C4(C(=O)Nc5ccc(F)cc5)CC4)cc3F)ccnc2cc1OCCCN1CCOCC1 [Foretinib] (partner 0.25 µM)
- relative viability ([1]; first compound 0.253 µM): 1.03
- relative viability ([1]; first compound 0.8 µM): 1.04
- relative viability ([1]; first compound 2.53 µM): 1.17
- relative viability ([1]; first compound 8 µM): 1.05
- relative viability ([2]; first compound 0.253 µM): 0.904
- relative viability ([2]; first compound 0.8 µM): 0.929
- relative viability ([2]; first compound 2.53 µM): 1
- relative viability ([2]; first compound 8 µM): 1.05
- relative viability ([3]; first compound 0.253 µM): 0.673
- relative viability ([3]; first compound 0.8 µM): 0.526
- relative viability ([3]; first compound 2.53 µM): 0.516
- relative viability ([3]; first compound 8 µM): 0.514
- relative viability ([4]; first compound 0.253 µM): 0.846
- relative viability ([4]; first compound 2.53 µM): 0.856
- relative viability ([4]; first compound 8 µM): 0.955
- relative viability ([5]; first compound 0.253 µM): 0.916
- relative viability ([5]; first compound 0.8 µM): 1.04
- relative viability ([5]; first compound 2.53 µM): 0.915
- relative viability ([5]; first compound 8 µM): 0.929
- relative viability ([6]; first compound 0.253 µM): 1.08
- relative viability ([6]; first compound 2.53 µM): 1.23
- relative viability ([6]; first compound 8 µM): 1.13
- relative viability ([7]; first compound 0.253 µM): 0.945
- relative viability ([7]; first compound 0.8 µM): 1.02
- relative viability ([7]; first compound 2.53 µM): 1.01
- relative viability ([7]; first compound 8 µM): 0.982
- relative viability ([8]; first compound 0.253 µM): 0.0951
- relative viability ([8]; first compound 0.8 µM): 0.0871
- relative viability ([8]; first compound 2.53 µM): 0.0994
- relative viability ([8]; first compound 8 µM): 0.109
- relative viability ([9]; first compound 0.253 µM): 1.34
- relative viability ([9]; first compound 0.8 µM): 1.25
- relative viability ([9]; first compound 2.53 µM): 1.32
- relative viability ([9]; first compound 8 µM): 1.46
- relative viability ([10]; first compound 0.253 µM): 0.906
- relative viability ([10]; first compound 0.8 µM): 0.991
- relative viability ([10]; first compound 2.53 µM): 1
- relative viability ([10]; first compound 8 µM): 0.947
- relative viability ([11]; first compound 0.253 µM): 0.897
- relative viability ([11]; first compound 0.8 µM): 0.998
- relative viability ([11]; first compound 2.53 µM): 1.08
- relative viability ([11]; first compound 8 µM): 1.15
- relative viability ([12]; first compound 0.253 µM): 1.02
- relative viability ([12]; first compound 0.8 µM): 0.951
- relative viability ([12]; first compound 2.53 µM): 1.11
- relative viability ([12]; first compound 8 µM): 1.01
- relative viability ([13]; first compound 0.253 µM): 0.964
- relative viability ([13]; first compound 0.8 µM): 1.02
- relative viability ([13]; first compound 2.53 µM): 1.14
- relative viability ([13]; first compound 8 µM): 1.07
- relative viability ([14]; first compound 0.253 µM): 1.57
- relative viability ([14]; first compound 0.8 µM): 1.17
- relative viability ([14]; first compound 2.53 µM): 1.24
- relative viability ([14]; first compound 8 µM): 0.847
- relative viability ([15]; first compound 0.253 µM): 0.855
- relative viability ([15]; first compound 0.8 µM): 0.822
- relative viability ([15]; first compound 2.53 µM): 1.12
- relative viability ([15]; first compound 8 µM): 1.16
- relative viability ([16]; first compound 0.253 µM): 1.11
- relative viability ([16]; first compound 0.8 µM): 0.93
- relative viability ([16]; first compound 2.53 µM): 1.13
- relative viability ([16]; first compound 8 µM): 1.11
- relative viability ([17]; first compound 0.253 µM): 0.89
- relative viability ([17]; first compound 0.8 µM): 1.19
- relative viability ([17]; first compound 2.53 µM): 0.753
- relative viability ([17]; first compound 8 µM): 0.931
- relative viability ([18]; first compound 0.253 µM): 0.98
- relative viability ([18]; first compound 0.8 µM): 1.04
- relative viability ([18]; first compound 2.53 µM): 0.915
- relative viability ([18]; first compound 8 µM): 1.02
- relative viability ([19]; first compound 0.253 µM): 1.07
- relative viability ([19]; first compound 0.8 µM): 1.03
- relative viability ([19]; first compound 2.53 µM): 1.14
- relative viability ([19]; first compound 8 µM): 1.14
- relative viability ([20]; first compound 0.253 µM): 0.894
- relative viability ([20]; first compound 0.8 µM): 0.933
- relative viability ([20]; first compound 2.53 µM): 0.902
- relative viability ([20]; first compound 8 µM): 0.77
- relative viability ([21]; first compound 0.253 µM): 1
- relative viability ([21]; first compound 2.53 µM): 1
- relative viability ([21]; first compound 8 µM): 0.983
- relative viability ([22]; first compound 0.253 µM): 0.871
- relative viability ([22]; first compound 0.8 µM): 0.905
- relative viability ([22]; first compound 2.53 µM): 0.911
- relative viability ([22]; first compound 8 µM): 0.848
- relative viability ([23]; first compound 0.253 µM): 0.942
- relative viability ([23]; first compound 0.8 µM): 0.823
- relative viability ([23]; first compound 2.53 µM): 1.07
- relative viability ([23]; first compound 8 µM): 1.14
